For data set [1], the system named is Human peripheral blood mononuclear cells. In words: Human Concanavalin-A Proliferation Assay (Con HU Assay). Format: cell-based. The following applies: Homo sapiens, PBMC, concanavalin-A stimulated human PBMC; for inhibition at 100 µM / inhibition at 1 µM / inhibition at 10 µM: 72 h, 3 days, read-out: % Inhibition of proliferation (at concentrations of 1,10, or 100 μm); for inhibition at 100 µM: concentration 100 μm (in parentheses in the cell); for IC50: tritiated thymidine; for inhibition at 1 µM: concentration 1 μm (in parentheses in the cell); for inhibition at 10 µM: concentration 10 μm (in parentheses in the cell). The gist of the method:
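Histopaque-isolated human PBMC (50,000/well) were pre-incubated 15 min with compounds, then stimulated with concanavalin-A at 2.5 μg/ml final for 3 days at 37 °C, 5% CO2. Proliferation measured by 6 h pulse with 0.5 μCi/well [3H]thymidine and beta counting.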

Consider `Cc1cccc(C(=O)Nc2ccc(-n3nc(C(F)(F)F)cc3C(F)(F)F)cc2)c1` [Example 75, N-[4-[3,5-bis(trifluoromethyl)-1H-pyrazol-1-yl]phenyl]-3-methylbenzamide], for which the melting point lay within 137 to 139 °C. In addition, in data set [1], the inhibition at 100 µM was determined as 100% and the half-inhibitory concentration (IC50) came out at 368 nM.
For the molecule `N#Cc1cc(C(F)(F)F)nn1-c1ccc(NC(=O)c2ccccc2Cl)cc1` [Example 350, 2-chloro-N-(4-(5-cyano-3-(trifluoromethyl)-1H-pyrazol-1-yl)phenyl)benzamide], the melting point was 162 to 163 °C. The molecule also registered an IC50 in data set [1] of 240 nM.
As to `CC(C)(C)OC(=O)N1CCCC1C(=O)Nc1ccc(-n2nc(C(F)(F)F)cc2C(F)(F)F)cc1` (centres unmarked) [Example 246, 1,1-Dimethylethyl 2-[[[4-[3,5-bis(trifluoromethyl)-1H-pyrazol-1-yl]phenyl]amino]carbonyl]-1-pyrrolidinecarboxylate], the melting point lay within 70 to 72 °C. The inhibition at 1 µM in data set [1] amounted to 47%.
Turning to `N#Cc1cccc(C(=O)Nc2ccc(-n3nc(C(F)(F)F)cc3C(F)(F)F)cc2)c1` [Example 137, N-[4-[3,5-bis(trifluoromethyl)-1H-pyrazol-1-yl]phenyl]-3-cyanobenzamide], the melting point lay in the range of 162 to 163 °C. In addition, in data set [1], the inhibition at 100 µM is 98% and 120 nM corresponded to half-maximal inhibition (IC50).
For `[N-]=[N+]=Nc1ccc(C(=O)Nc2ccc(-n3nc(C(F)(F)F)cc3C(F)(F)F)cc2)cc1` [Example 60, 4-Azido-N-[4-[3,5-bis(trifluoromethyl)-1H-pyrazol-1-yl]phenyl]benzamide] the same measures were 182 to 184 °C, 100% and 296 nM.
`Cn1cccc1C(=O)Nc1ccc(-n2nc(C(F)(F)F)cc2C(F)(F)F)cc1` [Example 248, N-[4-[3,5-bis(trifluoromethyl)-1H-pyrazol-1-yl]phenyl]-1-methyl-1H-pyrrole-2-carboxamide]: the melting point lay within 148 to 149 °C. Besides, in data set [1], the inhibition at 10 µM was 100% and the IC50 came to 143 nM.
`Cc1nnsc1C(=O)Nc1ccc(-n2nc(C(F)(F)F)cc2OC(F)F)cc1` [Example 323, N-(4-(5-(difluoromethoxy)-3-(trifluoromethyl)-1H-pyrazol-1-yl)phenyl)-4-methyl-1,2,3-thiadiazole-5-carboxamide] registered a melting point of 122 to 123 °C. The molecule further showed an IC50 in data set [1] of 238 nM.
As to `O=C(Nc1ccncc1)c1ccc(-n2nc(C(F)(F)F)cc2C(F)(F)F)cc1` [Example 194, 4-[3,5-Bis(trifluoromethyl)-1H-pyrazol-1-yl]-N-(4-pyridinyl)benzamide], the melting point is 234 to 235 °C. Also, the inhibition at 1 µM in data set [1] was 23%.
`O=C(Nc1ccc(-n2nc(C(F)(F)F)cc2C(F)(F)F)cc1)c1cc(F)c(F)c(F)c1` [Example 227, N-[4-[3,5-bis(trifluoromethyl)-1H-pyrazol-1-yl]phenyl]-3,4,5-trifluorobenzamide] had a melting point of 158 to 159 °C. Also, in data set [1], the inhibition at 10 µM came to 100% and the IC50 came out at 257 nM.
For `O=C(Nc1ccc(-n2nc(C(F)(F)F)cc2C(F)(F)F)cc1)c1cc(F)c(F)cc1F` [Example 228, N-[4-[3,5-bis(trifluoromethyl)-1H-pyrazol-1-yl]phenyl]-2,4,5-trifluorobenzamide] the same measures were 109 to 111 °C, 99% and 147 nM.
`O=C(Nc1ccc(-n2nc(C(F)(F)F)cc2C(F)(F)F)cc1)c1ccc(-n2cccc2)cc1` [Example 46, N-[4-[3,5-bis(trifluoromethyl)-1H-pyrazol-1-yl]phenyl]-4-(1H-pyrrol-1-yl)benzamide] had a melting point of 249 to 252 °C. Moreover, the inhibition at 1 µM in data set [1] turned out to be 10%.
Turning to `O=C(Nc1ccc(-n2nc(C(F)(F)F)cc2C(F)(F)F)cc1)c1ccc(F)cc1C(F)(F)F` [Example 201, N-[4-[3,5-bis(trifluoromethyl)-1H-pyrazol-1-yl]phenyl]-4-fluoro-2-(trifluoromethyl)benzamide], the melting point lay within 178 to 179 °C. Also, in data set [1], the inhibition at 10 µM amounted to 100% and the IC50 stood at 364 nM.
`Cc1cc(Br)cc(C)c1NC(=O)Nc1ccc(-n2nc(C(F)(F)F)cc2C(F)(F)F)cc1` [Example 45, N-[4-[3,5-bis(trifluoromethyl)-1H-pyrazol-1-yl]phenyl]-N′-(4-bromo-2,6-dimethylphenyl)urea] returned a melting point of more than 230 °C. The inhibition at 1 µM in data set [1] came to 18%.
For `Cc1nnsc1C(=O)Nc1ccc(-n2nc(C(F)(F)F)cc2C(F)(F)F)c(C(F)(F)F)c1` [Example 276, N-[4-[3,5-bis(trifluoromethyl)-1H-pyrazol-1-yl]-3-(trifluoromethyl)phenyl]-4-methyl-1,2,3-thiadiazole-5-carboxamide] the same measures were 134 to 136 °C and 16%.
As for `O=C(Nc1ccc(-n2nc(C(F)(F)F)cc2C(F)(F)F)cc1)Nc1cccc([N+](=O)[O-])c1` [Example 31, N-[4-[3,5-bis(trifluoromethyl)-1H-pyrazol-1-yl]phenyl]-N′-(3-nitrophenyl)urea], the melting point lay within 203 to 204 °C. In data set [1], the inhibition at 100 µM came to 100% and half-maximal inhibition (IC50) required 4040 nM.
`O=C(Nc1ccccc1[N+](=O)[O-])c1ccc(-n2nc(C(F)(F)F)cc2C(F)(F)F)cc1` [Example 190, 4-[3,5-Bis(trifluoromethyl)-1H-pyrazol-1-yl]-N-(2-nitrophenyl)benzamide] came in with a melting point of 173 to 175 °C. The inhibition at 1 µM in data set [1] worked out at 3%.
Molecule `Cc1ccc(NC(=O)Nc2ccc(-n3nc(C(F)(F)F)cc3C(F)(F)F)cc2)c([N+](=O)[O-])c1` [Example 43, N-[4-[3,5-bis(trifluoromethyl)-1H-pyrazol-1-yl]phenyl]-N′-(4-methyl-2-nitrophenyl)urea] had a melting point of 213 to 214 °C. Further, in data set [1], the inhibition at 10 µM worked out at 98% and the IC50 was 354 nM.
For the molecule `CC1(C(=O)Nc2ccc(-n3nc(C(F)(F)F)cc3C(F)(F)F)cc2)CC1` [Example 35, N-[4-[3,5-bis(trifluoromethyl)-1H-pyrazol-1-yl]phenyl]-1-methylcyclopropanecarboxamide], the melting point lay in the range of 109 to 110 °C. Moreover, the inhibition at 1 µM in data set [1] was found to be 65%.
For `COc1c(C(=O)Nc2ccc(-n3nc(C(F)(F)F)cc3C(F)(F)F)cc2)csc1Cl` [Example 267, N-[4-[3,5-bis(trifluoromethyl)-1H-pyrazol-1-yl]phenyl]-5-chloro-4-methoxy-3-thiophenecarboxamide] the same measures were 119 to 120 °C and 38%.
`O=C(Nc1ccc(-n2nc(C(F)(F)F)cc2C(F)(F)F)cc1)C1CCOC1` (centres unmarked) [Example 243, N-[4-[3,5-bis(trifluoromethyl)-1H-pyrazol-1-yl]phenyl]tetrahydro-3-furancarboxamide]: the melting point lay within 193 to 194 °C. Also, in data set [1], the inhibition at 10 µM came out at 99% and half-maximal inhibition (IC50) required 390 nM.
On to `COc1cc(C(F)(F)F)nn1-c1ccc(NC(=O)c2snnc2C)cc1` [Example 314, N-(4-(5-methoxy-3-(trifluoromethyl)-1H-pyrazol-1-yl)phenyl)-4-methyl-1,2,3-thiadiazole-5-carboxamide], for which the melting point was in the range of 159 to 160 °C. This molecule also returned an IC50 in data set [1] of 246 nM.
With `Cc1oncc1C(=O)Nc1ccc(-n2nc(C(F)(F)F)cc2C(F)(F)F)cc1` [Example 184, N-[4-[3,5-bis(trifluoromethyl)-1H-pyrazol-1-yl]phenyl]-5-methyl-4-isoxazolecarboxamide], the melting point lay in the range of 163 to 167 °C. Also, in data set [1], the inhibition at 10 µM was 90% and the IC50 worked out at 420 nM.
For `COc1cccc(O)c1C(=O)Nc1ccc(-n2nc(C(F)(F)F)cc2C(F)(F)F)cc1` [Example 182, N-[4-[3,5-bis(trifluoromethyl)-1H-pyrazol-1-yl]phenyl]-2-hydroxy-6-methoxybenzamide] the same measures were 114 to 116 °C, 83% and 4670 nM.
In turn, `Cc1nc(C)n(-c2ccc(NC(=O)c3snnc3C)cc2)n1` [Example 289, N-[4-(3,5-dimethyl-1H-1,2,4-triazol-1-yl)phenyl]-4-methyl-1,2,3-thiadiazole-5-carboxamide] registered a melting point of 144 to 145 °C. Besides, in data set [1], the inhibition at 1 µM worked out at 22%.
For `O=C(Nc1cccc(-n2nc(C(F)(F)F)cc2C(F)(F)F)c1)c1cccc(Cl)c1Cl` [Example 198, N-[3-[3,5-bis(trifluoromethyl)-1H-pyrazol-1-yl]phenyl]-2,3-dichlorobenzamide] the same measures were 119 to 121 °C and 4%.
`COC1CCCC(C(=O)Nc2ccc(-n3nc(C(F)(F)F)cc3C(F)(F)F)cc2)C1` (centres unmarked) [Example 11, N-[4-[3,5-bis(trifluoromethyl)-1H-pyrazol-1-yl]phenyl]-3-methoxycyclohexanecarboxamide] showed a melting point of 145 to 147 °C. In addition, in data set [1], the inhibition at 10 µM was determined as 100% and the IC50 was found to be 376 nM.
Consider `O=C(Nc1c(F)cccc1F)c1ccc(-n2nc(C(F)(F)F)cc2C(F)(F)F)cc1` [Example 191, 4-[3,5-Bis(trifluoromethyl)-1H-pyrazol-1-yl]-N-(2,6-difluorophenyl)benzamide], for which the melting point lay in the range of 187 to 188 °C. Also, in data set [1], the inhibition at 1 µM stood at 99% and the IC50 was 116 nM.

Values taken from US20010044445A1, “AZOLE INHIBITORS OF CYTOKINE PRODUCTION” (priority 1999, published 2001).
